Cc1ccc2c(c1)C(=O)OC2=O
solubility (mole fraction)
Settings | 278.15 K | 283.15 K | 288.15 K | 293.15 K | 298.15 K | 303.15 K | 308.15 K | 313.15 K | 318.15 K
in acetone | 0.127 | 0.15 | 0.176 | 0.206 | 0.236 | 0.272 | 0.312 | 0.356 | 0.406
in acetonitrile | 0.101 | 0.118 | 0.141 | 0.167 | 0.193 | 0.224 | 0.258 | 0.3 | 0.343
in cyclohexane | – | 0.00152 | 0.0019 | 0.00245 | 0.0031 | 0.00396 | 0.00489 | 0.00591 | 0.00729
in methyl acetate | 0.179 | 0.206 | 0.236 | 0.263 | 0.289 | 0.328 | 0.363 | 0.41 | 0.449
in n-butyl acetate | 0.0226 | 0.0267 | 0.0312 | 0.0397 | 0.0473 | 0.0586 | 0.0716 | 0.0858 | 0.102
in n-heptane | 0.00107 | 0.00142 | 0.00178 | 0.00227 | 0.00284 | 0.00355 | 0.00444 | 0.00556 | 0.007
in tetrachloromethane | 0.00751 | 0.00871 | 0.0105 | 0.0127 | 0.0157 | 0.0189 | 0.0222 | 0.0265 | 0.0321
in toluene | 0.0651 | 0.0781 | 0.0945 | 0.11 | 0.133 | 0.158 | 0.188 | 0.225 | 0.273

From BigSolDB 2.1
